Biological target: T1, human S1P1 receptors (Homo sapiens, UniProt P21453)
T1 construct: host or cells: HEK293
Test: S1P1R antagonist assay (fluorescent membrane potential dye, cAMP readout)
Assay type: cell-based
Settings: HEK293 cells expressing human S1P1 receptors and CNG channel; 500 nM NECA; S1P1R agonist 10 nM; 90 minutes; read-out: EC50 or IC50 value

T1 sequence (P21453 whole entry): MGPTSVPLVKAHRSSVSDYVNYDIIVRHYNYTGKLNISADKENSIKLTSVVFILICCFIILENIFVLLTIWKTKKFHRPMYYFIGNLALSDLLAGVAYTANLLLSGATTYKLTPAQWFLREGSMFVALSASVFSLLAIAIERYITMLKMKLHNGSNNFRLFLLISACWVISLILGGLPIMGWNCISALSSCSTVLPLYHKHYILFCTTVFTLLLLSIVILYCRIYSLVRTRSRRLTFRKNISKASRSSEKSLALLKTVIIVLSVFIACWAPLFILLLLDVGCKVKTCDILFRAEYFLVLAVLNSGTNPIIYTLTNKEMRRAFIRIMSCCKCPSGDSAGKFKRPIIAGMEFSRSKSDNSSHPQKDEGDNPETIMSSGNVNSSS

SMILES | IC50
COc1ccc(N2CCN(CC(=O)N[C@@H](COCc3ccccc3)C(=O)Nc3ccc(Oc4ccc(F)cc4)cc3)CC2)cc1 [Compound 224, (S)-3-(benzyloxy)-N-(4-(4-fluorophenoxy)phenyl)-2-(2-(4-(4-methoxyphenyl)piperazin-1-yl)acetamido)propanamide] | 300 to 1000 nM
O=C(CN1CCN(c2ccccc2)CC1)N[C@@H](COCc1ccccc1)C(=O)Nc1ccc(Oc2ccc(F)cc2)cc1 [Compound 225, (S)-3-(benzyloxy)-N-(4-(4-fluorophenoxy)phenyl)-2-(2-(4-phenylpiperazin-1-yl)acetamido)propanamide] | 300 to 1000 nM
CC(=O)c1ccc(N2CCN(CC(=O)N[C@@H](COCc3ccccc3)C(=O)Nc3ccc(Oc4ccc(F)cc4)cc3)CC2)cc1 [Compound 229, (S)-2-(2-(4-(4-acetylphenyl)piperazin-1-yl)acetamido)-3-(benzyloxy)-N-(4-(4-fluorophenoxy)phenyl)propanamide] | 300 to 1000 nM
CCN(CC)C(=O)C1CCCN(CC(=O)N[C@@H](COCc2ccccc2)C(=O)Nc2ccc(Oc3ccc(F)cc3)cc2)C1 (stereo partly drawn) [Compound 231, 1-(2-((S)-3-(benzyloxy)-1-(4-(4-fluorophenoxy)phenylamino)-1-oxopropan-2-ylamino)-2-oxoethyl)-N,N-diethylpiperidine-3-carboxamide] | 300 to 1000 nM
CC/C=C/CC(=O)N[C@@H](COCc1ccccc1)C(=O)Nc1ccc(Oc2ccc(F)cc2)cc1 [Compound 232, (S,E)-N-(3-(benzyloxy)-1-(4-(4-fluorophenoxy)phenylamino)-1-oxopropan-2-yl)hex-3-enamide] | > 1000 nM
CC(C)CC(=O)N[C@@H](COCc1ccccc1)C(=O)Nc1ccc(Oc2ccc(F)cc2)cc1 [Compound 233, (S)—N-(3-(benzyloxy)-1-(4-(4-fluorophenoxy)phenylamino)-1-oxopropan-2-yl)-3-methylbutanamide] | 300 to 1000 nM
C[C@@H]1CN(CC(=O)N[C@@H](COCc2ccccc2)C(=O)Nc2ccc(Oc3ccc(F)cc3)cc2)C[C@H](C)O1 [Compound 234, (S)-3-(benzyloxy)-2-(2-((2R,6S)-2,6-dimethylmorpholino)acetamido)-N-(4-(4-fluorophenoxy)phenyl)propanamide] | 300 to 1000 nM
O=C(CN1CCSC1)N[C@@H](COCc1ccccc1)C(=O)Nc1ccc(Oc2ccc(F)cc2)cc1 [Compound 235, (S)-3-(benzyloxy)-N-(4-(4-fluorophenoxy)phenyl)-2-(2-(thiazolidin-3-yl)acetamido)propanamide] | 300 to 1000 nM
CC(=O)N1CCN(CC(=O)N[C@@H](COCc2ccccc2)C(=O)Nc2ccc(Oc3ccc(F)cc3)cc2)CC1 [Compound 236, (S)-2-(2-(4-acetylpiperazin-1-yl)acetamido)-3-(benzyloxy)-N-(4-(4-fluorophenoxy)phenyl)propanamide] | 300 to 1000 nM
O=C(CN1CCN(C(=O)C2CCCO2)CC1)N[C@@H](COCc1ccccc1)C(=O)Nc1ccc(Oc2ccc(F)cc2)cc1 (stereo partly drawn) [Compound 237, (2S)-3-(benzyloxy)-N-(4-(4-fluorophenoxy)phenyl)-2-(2-(4-(tetrahydrofuran-2-carbonyl)piperazin-1-yl)acetamido)propanamide] | 300 to 1000 nM
COC(=O)C1CCN(CC(=O)N[C@@H](COCc2ccccc2)C(=O)Nc2ccc(Oc3ccc(F)cc3)cc2)CC1 [Compound 238, (S)-methyl 1-(2-(3-(benzyloxy)-1-(4-(4-fluorophenoxy)phenylamino)-1-oxopropan-2-ylamino)-2-oxoethyl)piperidine-4-carboxylate] | 300 to 1000 nM
O=C(CN1Cc2ccccc2C1)N[C@@H](COCc1ccccc1)C(=O)Nc1ccc(Oc2ccc(F)cc2)cc1 [Compound 240, (S)-3-(benzyloxy)-N-(4-(4-fluorophenoxy)phenyl)-2-(2-(isoindolin-2-yl)acetamido)propanamide] | 300 to 1000 nM
COCCN1CCN(CC(=O)N[C@@H](COCc2ccccc2)C(=O)Nc2ccc(Oc3ccc(F)cc3)cc2)CC1 [Compound 241, (S)-3-(benzyloxy)-N-(4-(4-fluorophenoxy)phenyl)-2-(2-(4-(2-methoxyethyl)piperazin-1-yl)acetamido)propanamide] | 300 to 1000 nM
CCOCCN1CCN(CC(=O)N[C@@H](COCc2ccccc2)C(=O)Nc2ccc(Oc3ccc(F)cc3)cc2)CC1 [Compound 242, (S)-3-(benzyloxy)-N-(4-(4-fluorophenoxy)phenyl)-2-(2-(4-(2-ethoxyethyl)piperazin-1-yl)acetamido)propanamide] | 300 to 1000 nM
O=C(Cc1cccc(Br)c1)N[C@@H](COCc1ccccc1)C(=O)Nc1ccc(Oc2ccc(F)cc2)cc1 [Compound 244, (S)-3-(benzyloxy)-2-(2-(3-bromophenyl)acetamido)-N-(4-(4-fluorophenoxy)phenyl)propanamide] | 300 to 1000 nM
CC(C)=CCC[C@H](C)CC(=O)N[C@@H](COCc1ccccc1)C(=O)Nc1ccc(Oc2ccc(F)cc2)cc1 [Compound 248, (S)—N—((S)-3-(benzyloxy)-1-(4-(4-fluorophenoxy)phenylamino)-1-oxopropan-2-yl)-3,7-dimethyloct-6-enamide] | 300 to 1000 nM
O=C(Cc1ccccc1)N[C@@H](COCc1ccccc1)C(=O)Nc1ccc(Oc2ccc(F)cc2)cc1 [Compound 249, (S)-3-(benzyloxy)-N-(4-(4-fluorophenoxy)phenyl)-2-(2-phenylacetamido)propanamide] | 300 to 1000 nM
O=C(N[C@@H]1C[C@@H](C(=O)Nc2ccc(Oc3ccc(F)cc3)cc2)N(C(=O)Cc2cnc[nH]2)C1)OCc1ccccc1 [Compound 253, benzyl (3R,5S)-1-(2-(1H-imidazol-5-yl)acetyl)-5-(4-(4-fluorophenoxy)phenylcarbamoyl)pyrrolidin-3-ylcarbamate] | ≤ 300 nM
CC(=O)NCCC[C@H](NC(=O)Cn1cncn1)C(=O)Nc1ccc(Oc2ccc(F)cc2)cc1 [Compound 254, (S)-2-(2-(1H-1,2,4-triazol-1-yl)acetamido)-5-acetamido-N-(4-(4-fluorophenoxy)phenyl)pentanamide] | ≤ 300 nM
CC(C)(C(=O)N[C@@H](COCc1ccccc1)C(=O)Nc1ccc(Oc2ccc(F)cc2)cc1)n1cncn1 [Compound 255, (S)-3-(benzyloxy)-N-(4-(4-fluorophenoxy)phenyl)-2-(2-methyl-2-(1H-1,2,4-triazol-1-yl)propanamido)propanamide] | 300 to 1000 nM
Cc1nc(C)n(CC(=O)N[C@@H](COCc2ccccc2)C(=O)Nc2ccc(Oc3ccc(F)cc3)cc2)n1 [Compound 256, (S)-3-(benzyloxy)-2-(2-(3,5-dimethyl-1H-1,2,4-triazol-1-yl)acetamido)-N-(4-(4-fluorophenoxy)phenyl)propanamide] | ≤ 300 nM
O=C(Nc1ccc(Oc2ccc(F)cc2)cc1)[C@@H]1CN(C(=O)OCc2ccccc2)CCN1C(=O)Cc1c[nH]cn1 [Compound 257, (S)-benzyl 4-(2-(1H-imidazol-4-yl)acetyl)-3-(4-(4-fluorophenoxy)phenylcarbamoyl)piperazine-1-carboxylate] | 300 to 1000 nM

The remaining lines, values ahead:

IC50 | SMILES
≤ 300 nM | O=C(Nc1ccc(Oc2ccc(F)cc2)cc1)[C@@H]1C[C@@H](Cc2ccc(F)c(F)c2)CN1C(=O)Cn1ccnn1 [Compound 226, (2S,4R)-1-(2-(1H-1,2,3-triazol-1-yl)acetyl)-4-(3,4-difluorobenzyl)-N-(4-(4-fluorophenoxy)phenyl)pyrrolidine-2-carboxamide]
≤ 300 nM | O=C(Nc1ccc(Oc2ccc(F)cc2)cc1)[C@@H]1C[C@@H](Cc2ccc(Cl)cc2)CN1C(=O)Cn1nccn1 [Compound 227, (2S,4R)-1-(2-(2H-1,2,3-triazol-2-yl)acetyl)-4-(4-chlorobenzyl)-N-(4-(4-fluorophenoxy)phenyl)pyrrolidine-2-carboxamide]
≤ 300 nM | O=C(Nc1ccc(Oc2ccc(F)cc2)cc1)[C@@H]1C[C@@H](Cc2ccc(Cl)cc2)CN1C(=O)Cn1ccnn1 [Compound 228, (2S,4R)-1-(2-(1H-1,2,3-triazol-1-yl)acetyl)-4-(4-chlorobenzyl)-N-(4-(4-fluorophenoxy)phenyl)pyrrolidine-2-carboxamide]
≤ 300 nM | O=C(CN1CCN(Cc2c(F)cccc2Cl)CC1)N[C@@H](COCc1ccccc1)C(=O)Nc1ccc(Oc2ccc(F)cc2)cc1 [Compound 239, (S)-3-(benzyloxy)-2-(2-(4-(2-chloro-6-fluorobenzyl)piperazin-1-yl)acetamido)-N-(4-(4-fluorophenoxy)phenyl)propanamide]
≤ 300 nM | O=C(Cc1c[nH]cn1)N[C@@H](COCc1ccccc1)C(=O)Nc1cccc(Oc2ccccc2)c1 [Compound 243, (S)-2-(2-(1H-imidazol-4-yl)acetamido)-3-(benzyloxy)-N-(3-phenoxyphenyl)propanamide]
≤ 300 nM | O=C(CC[N+](=O)[O-])N[C@@H](COCc1ccccc1)C(=O)Nc1ccc(Oc2ccc(F)cc2)cc1 [Compound 245, (S)-3-(benzyloxy)-N-(4-(4-fluorophenoxy)phenyl)-2-(3-nitropropanamido)propanamide]
≤ 300 nM | O=C(Cc1ccccn1)N[C@@H](COCc1ccccc1)C(=O)Nc1ccc(Oc2ccc(F)cc2)cc1 [Compound 246, (S)-3-(benzyloxy)-N-(4-(4-fluorophenoxy)phenyl)-2-(2-(pyridin-2-yl)acetamido)propanamide]
≤ 300 nM | O=C(Cc1cccnc1)N[C@@H](COCc1ccccc1)C(=O)Nc1ccc(Oc2ccc(F)cc2)cc1 [Compound 247, (S)-3-(benzyloxy)-N-(4-(4-fluorophenoxy)phenyl)-2-(2-(pyridin-3-yl)acetamido)propanamide]
≤ 300 nM | O=C(Cc1cncnc1)N[C@@H](COCc1ccccc1)C(=O)Nc1ccc(Oc2ccc(F)cc2)cc1 [Compound 250, (S)-3-(benzyloxy)-N-(4-(4-fluorophenoxy)phenyl)-2-(2-(pyrimidin-5-yl)acetamido)propanamide]
≤ 300 nM | O=C(Nc1ccc(Oc2ccc(F)cc2)cc1)[C@@H]1C[C@@H](c2ccccc2)CN1C(=O)Cc1cnc[nH]1 [Compound 251, (2S,4S)-1-(2-(1H-imidazol-5-yl)acetyl)-N-(4-(4-fluorophenoxy)phenyl)-4-phenylpyrrolidine-2-carboxamide]
≤ 300 nM | O=C(Nc1ccc(Oc2ccc(F)cc2)cc1)[C@@H]1C[C@@H](OCc2ccccc2)CN1C(=O)Cn1cncn1 [Compound 252, (2S,4R)-1-(2-(1H-1,2,4-triazol-1-yl)acetyl)-4-(benzyloxy)-N-(4-(4-fluorophenoxy)phenyl)pyrrolidine-2-carboxamide]
